# Assay results published in ChEMBL document CHEMBL1201862, “PubChem BioAssay data set” (2004).
# Calls of active or inactive are those of the source.
# How the values were obtained:
# Cytochrome P450 1A2 = biological target: T1, Cytochrome P450 1A2 (Homo sapiens, UniProt P05177);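 note: PubChem cytochrome P450 panel assay, CYP1A2 panel member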
# T1 sequence (P05177 whole entry): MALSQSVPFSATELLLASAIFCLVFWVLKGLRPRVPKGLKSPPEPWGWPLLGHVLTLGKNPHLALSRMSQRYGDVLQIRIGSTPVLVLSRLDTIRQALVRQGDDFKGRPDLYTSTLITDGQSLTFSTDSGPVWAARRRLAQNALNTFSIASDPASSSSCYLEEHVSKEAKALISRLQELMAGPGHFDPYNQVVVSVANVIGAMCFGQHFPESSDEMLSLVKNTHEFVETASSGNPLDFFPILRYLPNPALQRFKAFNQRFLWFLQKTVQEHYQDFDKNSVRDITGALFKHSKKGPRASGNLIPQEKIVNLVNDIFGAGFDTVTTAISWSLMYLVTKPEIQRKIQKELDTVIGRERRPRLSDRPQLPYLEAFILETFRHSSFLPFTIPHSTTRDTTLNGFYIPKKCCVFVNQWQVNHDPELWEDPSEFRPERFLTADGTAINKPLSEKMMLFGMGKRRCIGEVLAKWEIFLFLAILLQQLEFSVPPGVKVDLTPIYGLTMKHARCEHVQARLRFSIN
# Cytochrome P450 3A4 = Cytochrome P450 3A4 (Homo sapiens, UniProt P08684);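 note: CYP3A4 tested as one member of a cytochrome P450 panel screen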
# Cytochrome P450 2C19 = Cytochrome P450 2C19 (Homo sapiens, UniProt P33261); test: Cytochrome panel assay with activity outcomes. Panel member name: p450-cyp2c19 Compounds with AC50 equal or less than 10 uM are considered active; type: functional
# [1] = biological target: T2, Rac GTPase-activating protein 1 (Homo sapiens, UniProt Q9H0H5); test: MgcRacGAP GTPase-activating activity inhibitors, confirmation, biochemical, ADP Hunter fluorescence, primary and confirmatory (AID 624330); type: functional
# T2 sequence (Q9H0H5 whole entry): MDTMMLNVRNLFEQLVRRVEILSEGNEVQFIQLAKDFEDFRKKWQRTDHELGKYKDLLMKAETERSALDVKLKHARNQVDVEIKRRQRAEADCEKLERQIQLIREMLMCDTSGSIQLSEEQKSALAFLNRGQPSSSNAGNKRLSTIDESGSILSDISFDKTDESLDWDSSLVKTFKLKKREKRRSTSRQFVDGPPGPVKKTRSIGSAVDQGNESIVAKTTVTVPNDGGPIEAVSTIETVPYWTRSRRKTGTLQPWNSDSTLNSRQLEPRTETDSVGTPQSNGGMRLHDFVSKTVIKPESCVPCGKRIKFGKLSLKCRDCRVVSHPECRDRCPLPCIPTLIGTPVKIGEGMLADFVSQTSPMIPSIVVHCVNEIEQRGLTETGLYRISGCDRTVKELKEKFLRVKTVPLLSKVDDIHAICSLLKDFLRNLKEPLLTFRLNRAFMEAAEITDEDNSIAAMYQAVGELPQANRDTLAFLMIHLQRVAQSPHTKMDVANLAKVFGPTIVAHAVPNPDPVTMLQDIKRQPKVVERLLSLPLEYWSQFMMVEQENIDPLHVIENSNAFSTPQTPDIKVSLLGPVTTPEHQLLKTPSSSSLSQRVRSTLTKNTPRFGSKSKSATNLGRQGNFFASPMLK
# Cytochrome P450 2C9 = Cytochrome P450 2C9 (Homo sapiens, UniProt P11712)
# cells = type: functional
# Streptokinase A = biological target: T3, Streptokinase A (Streptococcus pyogenes serotype M1, UniProt P10520); test: S. pyogenes streptokinase expression inhibitors, potency, dose response, plasminogen activation absorbance, OD405 (AID 1914); type: functional, Streptococcus pyogenes M1 GAS;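 note: secreted streptokinase activity via plasminogen activation per viability signal from cell pellet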
# T3 sequence (P10520 whole entry): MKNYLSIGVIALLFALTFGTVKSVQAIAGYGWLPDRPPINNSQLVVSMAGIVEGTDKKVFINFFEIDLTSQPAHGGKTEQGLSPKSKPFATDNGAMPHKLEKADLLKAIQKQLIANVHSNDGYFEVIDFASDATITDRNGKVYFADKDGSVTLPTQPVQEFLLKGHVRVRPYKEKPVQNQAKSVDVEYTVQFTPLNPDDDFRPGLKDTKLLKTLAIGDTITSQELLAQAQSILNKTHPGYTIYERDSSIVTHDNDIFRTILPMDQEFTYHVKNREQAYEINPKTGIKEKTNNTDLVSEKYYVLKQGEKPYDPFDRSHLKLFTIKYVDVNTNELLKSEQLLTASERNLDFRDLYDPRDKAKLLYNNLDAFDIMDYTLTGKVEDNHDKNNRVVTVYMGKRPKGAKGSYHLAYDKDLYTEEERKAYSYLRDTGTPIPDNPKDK
# Streptococcus = test: Group A Streptococcus viability loss, dose response, counter-screen for streptokinase expression inhibitor project, luminescence, BacTiterGlo (AID 1915); type: functional, organism-based;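 note: potency for reduction of bacterial viability or growth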
# [2] = test system: Streptococcus sp. 'group A'; test: growth inhibition of control SK(-) GAS strain, dose response, counter-screen for streptokinase expression inhibitor project, luminescence, kanamycin, BacTiterGlo, confirmation (AID 1900); type: functional, organism-based
# [3] = biological target: T4, Corticotropin-releasing factor receptor 2/Corticotropin-releasing factor-binding protein (Homo sapiens, UniProt P24387+Q13324); test: activators of CRF receptor 2 with binding protein – uHTS hits, confirmation (AID 602473); type: functional; conditions: read-out: EC50_Mean
# T4 sequence (Q13324 whole entry): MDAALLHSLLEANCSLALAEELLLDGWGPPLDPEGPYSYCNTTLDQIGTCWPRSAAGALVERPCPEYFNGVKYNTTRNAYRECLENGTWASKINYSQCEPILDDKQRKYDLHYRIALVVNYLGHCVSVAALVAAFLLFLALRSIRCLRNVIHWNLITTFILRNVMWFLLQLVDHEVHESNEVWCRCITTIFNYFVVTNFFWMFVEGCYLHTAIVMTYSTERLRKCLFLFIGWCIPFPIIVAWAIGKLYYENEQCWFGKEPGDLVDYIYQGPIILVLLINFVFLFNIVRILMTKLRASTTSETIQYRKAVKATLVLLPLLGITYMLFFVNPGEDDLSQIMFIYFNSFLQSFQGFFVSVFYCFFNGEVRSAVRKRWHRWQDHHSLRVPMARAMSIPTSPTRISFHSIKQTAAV
# T4 sequence (P24387 whole entry): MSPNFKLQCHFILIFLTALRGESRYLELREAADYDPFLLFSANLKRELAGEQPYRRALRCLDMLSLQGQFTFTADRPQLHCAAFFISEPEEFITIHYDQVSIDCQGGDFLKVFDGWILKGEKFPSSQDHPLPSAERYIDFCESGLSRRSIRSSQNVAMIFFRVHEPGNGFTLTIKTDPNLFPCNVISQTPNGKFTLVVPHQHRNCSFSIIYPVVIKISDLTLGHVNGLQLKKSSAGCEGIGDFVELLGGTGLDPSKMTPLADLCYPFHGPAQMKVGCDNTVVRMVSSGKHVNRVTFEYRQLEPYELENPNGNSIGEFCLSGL
# Cytochrome P450 2D6 = Cytochrome P450 2D6 (Homo sapiens, UniProt P10635);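 note: CYP2D6 member of a cytochrome P450 panel assay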
# [4] = HEp-2 cell cytotoxicity, dose response, cytotoxicity control for RSV inhibitor project, HTS (AID 2410); type: functional; conditions: human respiratory syncytial virus
# [5] = inhibitors of firefly luciferase expression or activity, dose response, H4 neuroglioma cells, luminescence (AID 1990); type: functional, cell-based
# [6] = inhibitors of SNCA 5'UTR-driven reporter translation, confirmation, H4 neuroglioma cells, luminescence (AID 1988); type: functional, cell-based
# [7] = Luminescence Cell-Based Dose Response HTS to Identify Inhibitors of 5'UTR Stem-Loop Driven Prion Protein mRNA Translation in H4 Neuroglioblastoma Cells. [Related pubchem assays: 1827 (Project Summary), 1813 (Primary HTS)]; type: functional
# [8] = Luminescence Cell-Based Dose Retest to Confirm Inhibitors of Cancer Stem Cells. [Related pubchem assays (depositor defined):AID2717, AID2721]; type: functional; conditions: Homo sapiens
# INS1 = test: beta cell apoptosis inhibitors, cytokine rescue, dose response, luminescence, retest (AID 449756); type: functional, cell-based; conditions: Rattus norvegicus;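 note: cell death triggered by IL-1 beta plus TNF-alpha plus IFN-gamma mixture; protective hits raise ATP signal compared with cytokine alone wells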
# Sequence of Cytochrome P450 2D6 (P10635 whole entry): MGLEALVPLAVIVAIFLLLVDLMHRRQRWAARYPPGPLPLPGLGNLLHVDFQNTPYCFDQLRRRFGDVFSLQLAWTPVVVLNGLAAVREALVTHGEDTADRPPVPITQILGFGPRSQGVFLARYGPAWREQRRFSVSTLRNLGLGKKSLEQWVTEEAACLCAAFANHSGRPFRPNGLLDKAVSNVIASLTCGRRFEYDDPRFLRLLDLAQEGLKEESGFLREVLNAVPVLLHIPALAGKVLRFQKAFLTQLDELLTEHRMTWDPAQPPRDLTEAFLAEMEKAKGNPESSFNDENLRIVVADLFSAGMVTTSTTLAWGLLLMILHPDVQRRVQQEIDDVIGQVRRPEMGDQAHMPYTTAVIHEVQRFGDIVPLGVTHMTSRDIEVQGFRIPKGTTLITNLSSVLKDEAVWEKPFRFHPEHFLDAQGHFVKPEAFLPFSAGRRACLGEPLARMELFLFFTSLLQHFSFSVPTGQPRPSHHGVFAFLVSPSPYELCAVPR
# Sequence of Cytochrome P450 2C9 (P11712 whole entry): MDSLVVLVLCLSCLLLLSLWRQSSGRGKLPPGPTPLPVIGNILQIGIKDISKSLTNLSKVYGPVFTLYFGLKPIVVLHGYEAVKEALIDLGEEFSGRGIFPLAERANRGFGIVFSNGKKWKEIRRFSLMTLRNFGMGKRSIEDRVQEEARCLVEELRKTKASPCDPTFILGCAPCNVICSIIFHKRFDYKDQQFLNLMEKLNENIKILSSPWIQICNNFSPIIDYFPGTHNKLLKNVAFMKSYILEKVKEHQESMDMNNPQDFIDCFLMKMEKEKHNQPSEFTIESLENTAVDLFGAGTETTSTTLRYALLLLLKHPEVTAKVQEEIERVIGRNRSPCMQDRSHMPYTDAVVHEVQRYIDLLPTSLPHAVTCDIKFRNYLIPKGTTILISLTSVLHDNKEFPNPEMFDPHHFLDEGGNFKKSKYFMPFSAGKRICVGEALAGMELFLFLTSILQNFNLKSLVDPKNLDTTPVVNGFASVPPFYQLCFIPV
# Sequence of Cytochrome P450 3A4 (P08684 whole entry): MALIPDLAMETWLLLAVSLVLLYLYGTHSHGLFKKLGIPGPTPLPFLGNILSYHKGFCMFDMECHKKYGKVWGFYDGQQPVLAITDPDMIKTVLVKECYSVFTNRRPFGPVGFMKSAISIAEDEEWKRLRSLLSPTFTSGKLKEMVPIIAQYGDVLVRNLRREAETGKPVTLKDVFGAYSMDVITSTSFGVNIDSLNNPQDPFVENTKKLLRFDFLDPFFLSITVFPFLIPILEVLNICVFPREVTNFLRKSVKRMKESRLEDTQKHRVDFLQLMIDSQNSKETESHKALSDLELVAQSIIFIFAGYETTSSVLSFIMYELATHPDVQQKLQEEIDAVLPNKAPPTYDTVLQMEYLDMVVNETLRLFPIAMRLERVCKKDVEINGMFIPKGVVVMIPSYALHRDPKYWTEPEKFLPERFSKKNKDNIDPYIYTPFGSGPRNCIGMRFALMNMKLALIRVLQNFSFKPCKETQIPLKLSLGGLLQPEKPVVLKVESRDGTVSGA
# Sequence of Cytochrome P450 2C19 (P33261 whole entry): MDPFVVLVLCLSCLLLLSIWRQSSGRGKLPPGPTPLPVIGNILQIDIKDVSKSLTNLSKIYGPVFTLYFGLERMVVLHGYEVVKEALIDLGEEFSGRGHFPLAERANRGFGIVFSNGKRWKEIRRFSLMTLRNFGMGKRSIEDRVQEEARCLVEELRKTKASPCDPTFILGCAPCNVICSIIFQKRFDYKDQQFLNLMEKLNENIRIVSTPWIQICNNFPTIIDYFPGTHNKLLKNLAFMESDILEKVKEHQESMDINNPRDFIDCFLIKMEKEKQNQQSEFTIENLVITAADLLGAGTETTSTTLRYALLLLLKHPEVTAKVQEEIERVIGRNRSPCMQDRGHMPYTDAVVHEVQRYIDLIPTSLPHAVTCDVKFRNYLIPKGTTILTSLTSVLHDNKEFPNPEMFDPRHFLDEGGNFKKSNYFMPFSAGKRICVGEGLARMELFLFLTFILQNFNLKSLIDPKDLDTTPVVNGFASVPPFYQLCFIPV
compound,measurement,setting,value
CN(C)c1ncc2nc(-c3cc(F)cc(F)c3)c(=O)n(Cc3cccs3)c2n1,AC50,Cytochrome P450 1A2,1.58 µM (inconclusive)
same,AC50,Cytochrome P450 3A4,5.01 µM (inconclusive)
same,AC50,Cytochrome P450 2C19,inconclusive
Cc1ccccc1OCCN1CCCC1,IC50,[1],176 µM (active)
CCCCNCCOCCOc1ccc(C)cc1[N+](=O)[O-],AC50,Cytochrome P450 3A4,14.1 µM (inconclusive)
same,AC50,Cytochrome P450 2C19; read-out: AC50,39.8 µM (inconclusive)
same,AC50,Cytochrome P450 2C9,3.16 µM (inconclusive)
Nc1nonc1-c1nc2ccccc2n1Cc1ccc(F)cc1Cl,AC50,Cytochrome P450 3A4,14.1 µM (inconclusive)
same,AC50,Cytochrome P450 2C9,3.55 µM (inconclusive)
O=c1cc(CN2CCN(c3ccc(F)cc3)CC2)c2cc3c(cc2o1)CCCC3,AC50,Cytochrome P450 3A4,14.1 µM (inconclusive)
Cc1cnc(CNc2nc(-c3ccc(C(=O)N(C)C)cc3)nc3ccccc23)cn1,AC50,Cytochrome P450 1A2,25.1 µM (inconclusive)
same,AC50,Cytochrome P450 3A4,15.8 µM (inconclusive)
N#C/C(=C\c1ccc(N2CCOCC2)o1)c1ccccc1,IC50,[1],47.1 µM (active)
Cc1ccc(CCNC(=O)C2CC(c3ccccc3[N+](=O)[O-])=NO2)cc1 (stereo unspecified),AC50,Cytochrome P450 3A4,1.12 µM (inconclusive)
same,AC50,Cytochrome P450 2C9,39.8 µM (inconclusive)
O=C(Nc1ccn(Cc2ccccc2)n1)c1ccc(F)cc1,IC50,cells,> 50 µM (active)
COc1ccc(NC(=O)C(=O)NNC(=O)C(C)Oc2ccc(Cl)cc2Cl)cc1 (stereo unspecified),EC50,Streptokinase A,> 150 µM (not active)
same,IC50,cells,6.02 µM (active)
same,EC50,Streptococcus,18.5 µM (active)
same,EC50,[2],4.84 µM (active)
COc1ccc(-c2nc3c(c(=O)c4ccccc4n3C)c(=O)n2Cc2ccccc2)cc1,EC50,[3],> 53 µM (inactive)
S=C(CSc1ccccc1)Nc1cccc2ccccc12,AC50,Cytochrome P450 3A4,3.98 µM (inconclusive)
Cc1ccc(C(C)C)c(OCC(=O)OCc2c(C)noc2C)c1,IC50,cells,5.76 µM (active)
COC(=O)C/C=C\[C@@H](C)[C@@H](/C=N\O[C@@H]1O[C@H](COC(C)=O)[C@H](OC(C)=O)[C@H](OC(C)=O)[C@H]1OC(C)=O)OC,AC50,Cytochrome P450 3A4,6.31 µM (inconclusive)
same,AC50,Cytochrome P450 2D6,3.98 µM (inconclusive)
Cc1ccc(NCCC(=O)c2cccs2)cc1,IC50,cells,10.5 µM (active)
Cc1onc(-c2c(Cl)cccc2Cl)c1C(=O)Nc1nc(C(C)(C)C)cs1,CC50,[4],17 µM (active)
same,EC50,[5],14.4 µM (active)
same,EC50,[6],12.2 µM (active)
same,EC50,[7],16.7 µM (active)
CN(C)c1ccc(NC(=O)CN2C(=O)c3ccccc3C2=O)cc1,IC50,[1],73.7 µM (active)
CCOc1cc(/C=C2\SC(N3CCCC(C)C3)=NC2=O)ccc1O (stereo unspecified),IC50,[1],26.9 µM (active)
COc1ccc(C2=CC(c3ccco3)n3ncnc3N2)cc1 (stereo unspecified),EC50,[3],4.53 µM (active)
CC1=CC(C)(C)N(S(=O)(=O)c2ccc(F)cc2)c2ccc(C)cc21,AC50,[8],1.42 µM (active)
CCC1OC23CCCCC2C(C#N)(C(=N)O3)C1(C#N)C#N (stereo unspecified),AC50,Cytochrome P450 3A4,25.1 µM (inconclusive)
same,AC50,Cytochrome P450 2C9,14.1 µM (inconclusive)
Cc1ccc(NC(=O)COCC(=O)Nc2ccc(C)cc2)cc1,IC50,cells,22.8 µM (active)
O=C(OCC(=O)N1CCCc2ccccc21)c1ccc(S(=O)(=O)C(F)F)cc1,IC50,cells,23.3 µM (active)
CN(C)C(=O)c1ccc(-c2nccc(NCc3ccccc3)n2)cc1,AC50,Cytochrome P450 1A2,15.8 µM (inconclusive)
same,AC50,Cytochrome P450 3A4,20 µM (inconclusive)
same,AC50,Cytochrome P450 2D6,39.8 µM (inconclusive)
COC(=O)c1ccc(N2CCN(CCNC(=O)Nc3ccc(OC)cc3)CC2)cc1,IC50,cells,22.5 µM (active)
Cc1nc(NCc2ccco2)c2c3c(sc2n1)CCC3,AC50,Cytochrome P450 3A4,15.8 µM (inconclusive)
same,AC50,Cytochrome P450 2D6,25.1 µM (inconclusive)
same,AC50,Cytochrome P450 2C9,12.6 µM (inconclusive)
COc1ccc(CNCC(=O)Nc2cc(OC)cc(OC)c2)cc1,IC50,[1],123 µM (active)
C[C@@H](CSc1ccc(Br)cc1)CN1CC[C@H](C(C)(C)C)CCC1=O,AC50,[8],0.315 µM (active)
Cc1ccc(-c2csc3ncnc(-n4cnc5ccccc54)c23)cc1,AC50,[8],2.81 µM (active)
C[C@@]12CC[C@@H]3c4ccc(O)cc4C[C@H](CCCCCCCCC[S+]([O-])CCCC(F)(F)C(F)(F)F)[C@H]3[C@@H]1CC[C@@H]2O (stereo partly specified),AC50,Cytochrome P450 1A2,31.6 µM (inconclusive)
same,AC50,Cytochrome P450 3A4,1 µM (inconclusive)
COc1cc(OC)c(OC)cc1CN1CCN(Cc2ccc(SC)cc2)CC1,IC50,[1],66.9 µM (active)
Cc1ccc(-c2noc(CN3CCN(C(c4ccccc4)c4ccccc4)CC3)n2)cc1,AC50,Cytochrome P450 3A4,35.5 µM (inconclusive)
COc1ccc(-c2sc3cc(OC)c(OC)cc3c2-c2ccc(O)cc2)cc1,AC50,[8],1.58 µM (active)
CCOC(=O)N/N=C/c1ccc(N(CC)CC)cc1O,IC50,[1],78.5 µM (active)
CCOc1cccc(/C=N/NC(=O)c2cc(C3CC3)[nH]n2)c1O,AC50,INS1,3.73 µM (active)
same,AC50,[8],5.71 µM (active)
Cc1cccc(N/N=C(/C=O)C(=O)c2cccs2)c1,AC50,[8],2.58 µM (active)
CCNC(=S)N/N=C/c1cn(Cc2ccc(F)cc2)c2ccccc12,AC50,[8],24 µM (active)
CCc1cc(/C(Cc2ccccn2)=N\O)c(O)cc1O,IC50,[1],31.6 µM (active)
O=C(Nc1ccccc1)c1cc([N+](=O)[O-])ccc1Cl,AC50,Cytochrome P450 3A4,25.1 µM (inconclusive)
same,AC50,Cytochrome P450 2D6,10 µM (inconclusive)
